Patent US20020137929A1, “1 - (3-heterocyclylphenyl) isothiourea, -isourea, -guanidine and -amidine herbicidal agents” (Intellectual Property Department, BASF Aktiengesellschaft, priority 1998, published 2002)

Assays:
[1] = test system: ECHCG (Barnyardgrass); experiment: Postemergence herbicidal evaluation; format: in vivo, Echinochloa crus-galli; details: postemergence
How it was run: (§1)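 Visual 0–9 rating versus control (stand, vigor, malformation, size, chlorosis, overall appearance), taken four to five weeks post-spray. Two-week-old seedlings received roughly 0.0156–0.500 kg/ha active in acetone/water (50/50) with 0.5% TWEEN 20 via nozzle at 40 psi.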

[2] = test system: TRZAWR (Wheat, Winter, cv Riband); experiment: Postemergence herbicidal evaluation; format: in vivo, Triticum aestivum; details: postemergence
How it was run: as §1

[3] = test system: ORYSAT (Rice, Tebonnet); experiment: Postemergence herbicidal evaluation; format: in vivo, Oryza sativa, (L.) Tebonnet; details: postemergence
How it was run: as §1

[4] = test system: ABUTH (Velvetleaf); experiment: Preemergence herbicidal evaluation; format: in vivo, Abutilon theophrasti; details: rated 4-5 weeks after treatment
How it was run: (§2)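 Seeds were planted in potting soil in cups, then sprayed preemergence with the test compound in aqueous acetone at about 0.0156 to 0.500 kg per hectare. Cups were kept under greenhouse conditions and visually rated 4–5 weeks after treatment on a 0–9 scale against an untreated control.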

[5] = test system: ABUTH (Velvetleaf); experiment: Postemergence herbicidal evaluation; format: in vivo, Abutilon theophrasti; details: postemergence
How it was run: as §1

[6] = test system: SETVI (Foxtail, Green); experiment: Preemergence herbicidal evaluation; format: in vivo, Setaria viridis; details: rated 4-5 weeks after treatment
How it was run: as §2

[7] = test system: GLXMAW (Soybean, Williams); experiment: Postemergence herbicidal evaluation; format: in vivo, Glycine max, (L.) Merr. cv Williams; details: postemergence
How it was run: as §1

[8] = test system: AMBEL (Ragweed, Common); experiment: Postemergence herbicidal evaluation; format: in vivo, Ambrosia artemisifolia; details: postemergence
How it was run: as §1

[9] = test system: SAGPY (Arrowhead (Pygmaea)); experiment: Preemergence weed control under flooded paddy conditions; format: in vivo, Sagittaria pygmaea; details: rated 3-4 weeks after treatment
How it was run: (§3)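 Visual injury scored 0-9 against control three to four weeks post-treatment, greenhouse-grown. Application: acetone/water (50/50) solutions dosed directly into flood water (1.5-3 cm over silt loam, planted top 0.5 cm), roughly 0.0313 to 0.500 kg/ha active ingredient.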

[10] = test system: CASOB (Sicklepod); experiment: Preemergence herbicidal evaluation; format: in vivo, Cassia obtusifolia; details: rated 4-5 weeks after treatment
How it was run: as §2

[11] = test system: SETVI (Foxtail, Green); experiment: Postemergence herbicidal evaluation; format: in vivo, Setaria viridis; details: postemergence
How it was run: as §1

[12] = test system: MOOVA (Monochoria); experiment: Preemergence weed control under flooded paddy conditions; format: in vivo, Monochoria vaginalis; details: rated 3-4 weeks after treatment
How it was run: as §3

Cn1c(C(F)(F)F)cc(=O)n(-c2cc(N=C3SCC(=O)N3CC(=O)OCC3CC3)c(Cl)cc2F)c1=O [Compound 124, Cyclopropylmethyl 2-{{2-chloro-5-[3,6-dihydro-3-methyl-2,6-dioxo-4-(trifluoromethyl)-1(2H)-pyrimidinyl]-4-fluorophenyl}imino}-4-oxo-3-thiazolidineacetate] was tested, and the “herbicidal rating ECHCG” value ([1]; rate 0.0156 kg/ha) was 3.0, the “herbicidal rating ECHCG” value ([1]; rate 0.0313 kg/ha) was 3.0 and the “herbicidal rating ECHCG” value ([1]; rate 0.0625 kg/ha) was 5.0. The “herbicidal rating TRZAWR” value ([2]; rate 0.0156 kg/ha) was 3.7, the “herbicidal rating TRZAWR” value ([2]; rate 0.0313 kg/ha) was 4.3 and the “herbicidal rating TRZAWR” value ([2]; rate 0.0625 kg/ha) was 5.0. For the same molecule, the “herbicidal rating ORYSAT” value ([3]; rate 0.0156 kg/ha) was 3.3, the “herbicidal rating ORYSAT” value ([3]; rate 0.0313 kg/ha) was 3.0 and the “herbicidal rating ORYSAT” value ([3]; rate 0.0625 kg/ha) was 3.0. The “Preemergence herbicidal rating ABUTH” value ([4]; rate 0.0156 kg/ha) was 0.0, the “Preemergence herbicidal rating ABUTH” value ([4]; rate 0.0313 kg/ha) was 0.0 and the “Preemergence herbicidal rating ABUTH” value ([4]; rate 0.0625 kg/ha) was 0.0. The “Preemergence herbicidal rating ABUTH” value ([4]; rate 0.1250 kg/ha) was 2.0, the “Preemergence herbicidal rating ABUTH” value ([4]; rate 0.2500 kg/ha) was 4.0 and the “Preemergence herbicidal rating ABUTH” value ([4]; rate 0.5000 kg/ha) was 7.0. The “herbicidal rating ABUTH” value ([5]; rate 0.0156 kg/ha) was 7.0, the “herbicidal rating ABUTH” value ([5]; rate 0.0313 kg/ha) was 9.0 and the “herbicidal rating ABUTH” value ([5]; rate 0.0625 kg/ha) was 9.0. For the same molecule, the “Preemergence herbicidal rating SETVI” value ([6]; rate 0.0156 kg/ha) was 0.0, the “Preemergence herbicidal rating SETVI” value ([6]; rate 0.0313 kg/ha) was 0.0 and the “Preemergence herbicidal rating SETVI” value ([6]; rate 0.0625 kg/ha) was 0.0. The “Preemergence herbicidal rating SETVI” value ([6]; rate 0.1250 kg/ha) was 0.0, the “Preemergence herbicidal rating SETVI” value ([6]; rate 0.2500 kg/ha) was 4.0 and the “Preemergence herbicidal rating SETVI” value ([6]; rate 0.5000 kg/ha) was 9.0. The “herbicidal rating GLXMAW” value ([7]; rate 0.0156 kg/ha) was 6.7, the “herbicidal rating GLXMAW” value ([7]; rate 0.0313 kg/ha) was 7.3 and the “herbicidal rating GLXMAW” value ([7]; rate 0.0625 kg/ha) was 7.0. For the same molecule, the “herbicidal rating AMBEL” value ([8]; rate 0.0156 kg/ha) was 9.0, the “herbicidal rating AMBEL” value ([8]; rate 0.0313 kg/ha) was 9.0 and the “herbicidal rating AMBEL” value ([8]; rate 0.0625 kg/ha) was 9.0. The “herbicidal effect rating, SAGPY” value ([9]; 0.0313 kg/ha) was 0.0, the “herbicidal effect rating, SAGPY” value ([9]; 0.0625 kg/ha) was 0.0 and the “herbicidal effect rating, SAGPY” value ([9]; 0.1250 kg/ha) was 4.0. The “herbicidal effect rating, SAGPY” value ([9]; 0.2500 kg/ha) was 5.0, the “Preemergence herbicidal rating CASOB” value ([10]; rate 0.0156 kg/ha) was 0.0 and the “Preemergence herbicidal rating CASOB” value ([10]; rate 0.0313 kg/ha) was 0.0. For the same molecule, the “Preemergence herbicidal rating CASOB” value ([10]; rate 0.0625 kg/ha) was 1.0, the “Preemergence herbicidal rating CASOB” value ([10]; rate 0.1250 kg/ha) was 0.0 and the “Preemergence herbicidal rating CASOB” value ([10]; rate 0.2500 kg/ha) was 3.0. The “Preemergence herbicidal rating CASOB” value ([10]; rate 0.5000 kg/ha) was 0.0, the “herbicidal rating SETVI” value ([11]; rate 0.0156 kg/ha) was 3.0 and the “herbicidal rating SETVI” value ([11]; rate 0.0313 kg/ha) was 5.0. The “herbicidal rating SETVI” value ([11]; rate 0.0625 kg/ha) was 5.0, the “herbicidal effect rating, MOOVA” value ([12]; 0.0313 kg/ha) was 0.0 and the “herbicidal effect rating, MOOVA” value ([12]; 0.0625 kg/ha) was 0.0. The “herbicidal effect rating, MOOVA” value ([12]; 0.1250 kg/ha) was 0.0 and the “herbicidal effect rating, MOOVA” value ([12]; 0.2500 kg/ha) was 7.0.

With CCOC(=O)CN1C(=O)C(SC)SC1=Nc1cc(-n2c(=O)cc(C(F)(F)F)n(C)c2=O)c(F)cc1Cl (stereo not shown) [Compound 125, Ethyl 2-{{2-chloro-5-[3,6-dihydro-3-methyl-2,6-dioxo-4-(trifluoromethyl)-1(2H)-pyrimidinyl]-4-fluorophenyl}imino}-5-(methylthio)-4-oxo-3-thiazolidineacetate] the “herbicidal rating ECHCG” value ([1]; rate 0.0156 kg/ha) was 1.0, the “herbicidal rating ECHCG” value ([1]; rate 0.0313 kg/ha) was 2.0 and the “herbicidal rating ECHCG” value ([1]; rate 0.0625 kg/ha) was 3.0. The “herbicidal rating TRZAWR” value ([2]; rate 0.0156 kg/ha) was 4.3, the “herbicidal rating TRZAWR” value ([2]; rate 0.0313 kg/ha) was 5.0 and the “herbicidal rating TRZAWR” value ([2]; rate 0.0625 kg/ha) was 5.0. For the same molecule, the “herbicidal rating ORYSAT” value ([3]; rate 0.0156 kg/ha) was 3.3, the “herbicidal rating ORYSAT” value ([3]; rate 0.0313 kg/ha) was 4.0 and the “herbicidal rating ORYSAT” value ([3]; rate 0.0625 kg/ha) was 3.7. For the same molecule, the “Preemergence herbicidal rating ABUTH” value ([4]; rate 0.0156 kg/ha) was 0.0, the “Preemergence herbicidal rating ABUTH” value ([4]; rate 0.0313 kg/ha) was 2.0 and the “Preemergence herbicidal rating ABUTH” value ([4]; rate 0.0625 kg/ha) was 4.0. The “Preemergence herbicidal rating ABUTH” value ([4]; rate 0.1250 kg/ha) was 6.0, the “Preemergence herbicidal rating ABUTH” value ([4]; rate 0.2500 kg/ha) was 9.0 and the “Preemergence herbicidal rating ABUTH” value ([4]; rate 0.5000 kg/ha) was 9.0. For the same molecule, the “herbicidal rating ABUTH” value ([5]; rate 0.0156 kg/ha) was 9.0, the “herbicidal rating ABUTH” value ([5]; rate 0.0313 kg/ha) was 9.0 and the “herbicidal rating ABUTH” value ([5]; rate 0.0625 kg/ha) was 9.0. For the same molecule, the “Preemergence herbicidal rating SETVI” value ([6]; rate 0.0156 kg/ha) was 0.0, the “Preemergence herbicidal rating SETVI” value ([6]; rate 0.0313 kg/ha) was 0.0 and the “Preemergence herbicidal rating SETVI” value ([6]; rate 0.0625 kg/ha) was 5.0. The “Preemergence herbicidal rating SETVI” value ([6]; rate 0.1250 kg/ha) was 9.0, the “Preemergence herbicidal rating SETVI” value ([6]; rate 0.2500 kg/ha) was 9.0 and the “Preemergence herbicidal rating SETVI” value ([6]; rate 0.5000 kg/ha) was 9.0. The “herbicidal rating GLXMAW” value ([7]; rate 0.0156 kg/ha) was 7.3, the “herbicidal rating GLXMAW” value ([7]; rate 0.0313 kg/ha) was 8.0 and the “herbicidal rating GLXMAW” value ([7]; rate 0.0625 kg/ha) was 8.7. The “herbicidal rating AMBEL” value ([8]; rate 0.0156 kg/ha) was 3.0, the “herbicidal rating AMBEL” value ([8]; rate 0.0313 kg/ha) was 8.0 and the “herbicidal rating AMBEL” value ([8]; rate 0.0625 kg/ha) was 8.0. For the same molecule, the “herbicidal effect rating, SAGPY” value ([9]; 0.0313 kg/ha) was 3.0, the “herbicidal effect rating, SAGPY” value ([9]; 0.0625 kg/ha) was 4.0 and the “herbicidal effect rating, SAGPY” value ([9]; 0.1250 kg/ha) was 4.0. The “herbicidal effect rating, SAGPY” value ([9]; 0.2500 kg/ha) was 9.0, the “Preemergence herbicidal rating CASOB” value ([10]; rate 0.0156 kg/ha) was 0.0 and the “Preemergence herbicidal rating CASOB” value ([10]; rate 0.0313 kg/ha) was 1.0. The “Preemergence herbicidal rating CASOB” value ([10]; rate 0.0625 kg/ha) was 3.0, the “Preemergence herbicidal rating CASOB” value ([10]; rate 0.1250 kg/ha) was 2.0 and the “Preemergence herbicidal rating CASOB” value ([10]; rate 0.2500 kg/ha) was 9.0. The “Preemergence herbicidal rating CASOB” value ([10]; rate 0.5000 kg/ha) was 9.0, the “herbicidal rating SETVI” value ([11]; rate 0.0156 kg/ha) was 2.0 and the “herbicidal rating SETVI” value ([11]; rate 0.0313 kg/ha) was 5.0. The “herbicidal rating SETVI” value ([11]; rate 0.0625 kg/ha) was 5.0, the “herbicidal effect rating, MOOVA” value ([12]; 0.0313 kg/ha) was 5.0 and the “herbicidal effect rating, MOOVA” value ([12]; 0.0625 kg/ha) was 7.0. The “herbicidal effect rating, MOOVA” value ([12]; 0.1250 kg/ha) was 7.0 and the “herbicidal effect rating, MOOVA” value ([12]; 0.2500 kg/ha) was 9.0.
